Source: US9884843B2 (Peloton Therapeutics, Inc., priority 2013, dated 2018)

These molecules were tested against HIF-2α HIS TAG-PASB Domain (Homo sapiens, UniProt Q99814) (assay: biochemical). Conditions: displacement of Compound 120 probe; mean; read-out: Mean SPA IC50.
Type: binding
Text: The term “scintillation proximity assay” (SPA) refers to a homogenous assay in which light is emitted when a radiolabeled ligand is brought into close proximity to a radiosensitive bead. The assay typically contains a target protein that contains a tag (e.g., His Tag, Glutathione S-transferase Tag). The tag on the protein is used to bind the target protein to the scintillation bead. Radiolabeled ligand (e.g., labeled with tritium) that binds to the protein is now in close proximity to the bead, and when the raidolabel (e.g., tritium) decays, the high energy particle hits the bead resulting in the emission of light that is detected by a detector, such as photomultiplier tube or CCD camera. When unlabeled ligands or compounds that bind to the protein are used in the assay, they displace the radiolabeled ligand, resulting in loss of signal.
The total assay volume was about 100 μL in the following configuration: 2-μL compound in DMSO, 88 μL buffer with protein and probe and 10 μL of SPA beads. […] To each compound, 88 μL of the buffer solution was then added. […] The percent inhibition was determined and IC50 values were calculated using the Dotmatics system based on the following equation: % inhibition=[(high control−sample)/(high control−low control)]×100.

HIF-2α HIS TAG-PASB Domain, sequence (Q99814 whole entry, looked up, the tested form may be a part): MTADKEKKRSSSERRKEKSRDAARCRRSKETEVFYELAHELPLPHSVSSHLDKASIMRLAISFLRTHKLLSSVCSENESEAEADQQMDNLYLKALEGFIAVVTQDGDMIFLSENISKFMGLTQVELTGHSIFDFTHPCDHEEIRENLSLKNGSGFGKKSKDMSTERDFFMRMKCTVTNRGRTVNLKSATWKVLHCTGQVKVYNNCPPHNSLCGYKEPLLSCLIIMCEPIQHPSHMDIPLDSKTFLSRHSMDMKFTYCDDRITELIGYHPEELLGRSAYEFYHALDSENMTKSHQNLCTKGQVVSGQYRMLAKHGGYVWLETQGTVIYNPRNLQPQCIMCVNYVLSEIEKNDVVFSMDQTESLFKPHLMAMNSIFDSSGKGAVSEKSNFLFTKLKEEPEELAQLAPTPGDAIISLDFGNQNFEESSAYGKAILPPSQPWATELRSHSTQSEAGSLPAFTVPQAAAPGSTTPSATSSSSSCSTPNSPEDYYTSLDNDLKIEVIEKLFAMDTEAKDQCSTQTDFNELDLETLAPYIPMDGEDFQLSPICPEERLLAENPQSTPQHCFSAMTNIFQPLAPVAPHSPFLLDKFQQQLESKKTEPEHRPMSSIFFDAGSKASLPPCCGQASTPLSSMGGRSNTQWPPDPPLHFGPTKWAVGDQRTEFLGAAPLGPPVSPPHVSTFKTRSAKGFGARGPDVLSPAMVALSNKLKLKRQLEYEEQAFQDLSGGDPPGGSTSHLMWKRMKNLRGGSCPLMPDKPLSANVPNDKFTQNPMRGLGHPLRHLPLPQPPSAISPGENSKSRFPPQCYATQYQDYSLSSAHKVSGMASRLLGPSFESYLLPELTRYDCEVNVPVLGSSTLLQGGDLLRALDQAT

Compound | IC50
Cc1cncc(Oc2ccc3c(c2Br)[C@@H](O)C(F)(F)S3(=O)=O)c1 [Compound 82, (R)-4-bromo-2,2-difluoro-3-hydroxy-5-((5-methylpyridin-3-yl)oxy)-2,3-dihydrobenzo[b]thiophene 1,1-dioxide] | 2.93 µM
N#CN=S1(=O)c2ccc(Oc3cc(F)cc(F)c3)c(Cl)c2[C@@H](O)C1(F)F (stereo partly drawn) [Compound 66, N-((3R)-4-Chloro-5-(3,5-difluorophenoxy)-2,2-difluoro-3-hydroxy-1-oxido-2,3-dihydro-1λ^4-benzo[b]thiophen-1-ylidene)cyanamide] | 0.17 µM
N#Cc1c(Oc2cc(F)cc(Cl)c2)ccc2c1CCS2(=O)=O [Compound 5, 5-(3-Chloro-5-fluorophenoxy)-2,3-dihydrobenzo[b]thiophene-4-carbonitrile 1,1-dioxide] | 4.86 µM
O=S1(=O)CCc2c1ccc(Oc1cc(F)cc(Cl)c1)c2Br [Compound 4, 4-Bromo-5-(3-chloro-5-fluorophenoxy)-2,3-dihydrobenzo[b]thiophene 1,1-dioxide] | 4.41 µM
N#Cc1cc(F)cc(Oc2ccc3c(c2Br)[C@@H](O)C(F)(F)S3(=O)=O)c1 [Compound 1, (R)-3-((4-bromo-2,2-difluoro-3-hydroxy-1,1-dioxido-2,3-dihydrobenzo[b]thiophen-5-yl)oxy)-5-fluorobenzonitrile] | 0.007 µM
O=S1(=O)c2ccc(Oc3cncc(Cl)c3)c(Br)c2[C@@H](O)C1(F)F [Compound 75, (R)-4-bromo-5-((5-chloropyridin-3-yl)oxy)-2,2-difluoro-3-hydroxy-2,3-dihydrobenzo[b]thiophene 1,1-dioxide] | 0.12 µM
N#Cc1cc(F)cc(Oc2ccc3c(c2C#N)C(O)(C(F)(F)F)CS3(=O)=O)c1 (stereo not drawn) [Compound 104, 5-(3-Cyano-5-fluorophenoxy)-3-hydroxy-3-(trifluoromethyl)-2,3-dihydrobenzo[b]thiophene-4-carbonitrile 1,1-dioxide] | 6.3 µM
N#Cc1c(Oc2cc(F)cc(Cl)c2)ccc2c1[C@@H](O)CS2(=O)=O [Compound 2, (3R)-5-(3-Chloro-5-fluoro-phenoxy)-3-hydroxy-1,1-dioxo-2,3-dihydrobenzothiophene-4-carbonitrile] | 0.047 µM
O=C1c2c(ccc(Oc3cc(F)cc(Cl)c3)c2Br)S(=O)(=O)C1(F)F [Compound 8, 4-Bromo-5-(3-chloro-5-fluorophenoxy)-2,2-difluorobenzo[b]thiophen-3(2H)-one 1,1-dioxide] | 1.41 µM
CC1(O)c2c(ccc(OC3CC(F)(F)C3)c2C#N)S(=O)(=O)C1(F)F (stereo not drawn) [Compound 115, 5-(3,3-Difluorocyclobutoxy)-2,2-difluoro-3-hydroxy-3-methyl-2,3-dihydrobenzo[b]thiophene-4-carbonitrile 1,1-dioxide] | 6.7 µM
NC1CS(=O)(=O)c2ccc(Oc3cc(F)cc(F)c3)c(C(F)F)c21 (stereo not drawn) [Compound 21] | 11.8 µM
O=S1(=O)c2ccc(Oc3cncc(Cl)c3)c(Cl)c2[C@@H](O)C1(F)F [Compound 86, (R)-4-Chloro-5-((5-chloropyridin-3-yl)oxy)-2,2-difluoro-3-hydroxy-2,3-dihydrobenzo[b]thiophene 1,1-dioxide] | 0.38 µM
C=CC1(O)c2c(ccc(Oc3cc(F)cc(C#N)c3)c2C#N)S(=O)(=O)C1(F)F (stereo not drawn) [Compound 114, 5-(3-Cyano-5-fluorophenoxy)-2,2-difluoro-3-hydroxy-3-vinyl-2,3-dihydrobenzo[b]thiophene-4-carbonitrile 1,1-dioxide] | > 100 µM
O=S1(=O)c2ccc(Oc3cncc(F)c3)c(Br)c2[C@@H](O)C1(F)F [Compound 77, (R)-4-bromo-2,2-difluoro-5-((5-fluoropyridin-3-yl)oxy)-3-hydroxy-2,3-dihydrobenzo[b]thiophene 1,1-dioxide] | 0.31 µM
N#Cc1cc(F)cc(Oc2ccc3c(c2C(F)F)C(=N)C(F)S3(=O)=O)c1 (stereo not drawn) [Compound 27, 3-((4-(difluoromethyl)-2-fluoro-3-imino-1,1-dioxido-2,3-dihydrobenzo[b]thiophen-5-yl)oxy)-5-fluorobenzonitrile] | 5.84 µM
N#Cc1c(Oc2cc(F)cc(F)c2)ccc2c1C(O)(C(F)(F)F)CS2(=O)=O (stereo not drawn) [Compound 102, 5-(3,5-Difluorophenoxy)-3-hydroxy-3-(trifluoromethyl)-2,3-dihydrobenzo[b]thiophene-4-carbonitrile 1,1-dioxide] | 4.6 µM

Same assay, conditions: unnumbered compounds listed by structure and name; read-out: IC50 value in SPA

Compound | IC50
O=S1(=O)C[C@H](O)c2c1ccc(Oc1cncc(Cl)c1)c2Br [(3R)-4-bromo-5-[(5-chloro-3-pyridyl]oxy]-1,1-dioxo-2,3-dihydrobenzothiophen-3-ol] | > 100 µM
O=C1c2c(ccc(Oc3ccc(F)c(F)c3)c2C(F)F)S(=O)(=O)C1(F)F [4-(difluoromethyl)-5-(3,4-difluorophenoxy)-2,2-difluoro-1,1-dioxo-benzothiophen-3-one] | > 100 µM
N#Cc1cc(F)cc(Oc2ccc3c(c2CF)C(O)CS3(=O)=O)c1 (stereo not drawn) [3-fluoro-5-[[4-(fluoromethyl)-3-hydroxy-1,1-dioxo-2,3-dihydrobenzothiophen-5-yl]oxy]benzonitrile] | 25 to 100 µM
N#CCNC1CS(=O)(=O)c2ccc(Oc3cc(F)cc(C#N)c3)c(C(F)F)c21 (stereo not drawn) [3-[[3-(cyanomethylamino)-4-(difluoromethyl)-1,1-dioxo-2,3-dihydrobenzothiophen-5-yl]oxy]-5-fluoro-benzonitrile] | > 100 µM
O=C1CS(=O)(=O)c2ccc(Oc3cc(F)cc(F)c3)c(Br)c21 [4-bromo-5-(3,5-difluorophenoxy)-1,1-dioxo-benzothiophen-3-one] | > 100 µM
N#Cc1c(Oc2cncc(F)c2)ccc2c1[C@@H](O)CS2(=O)=O [(3R)-5-[(5-fluoro-3-pyridyl)oxy]-3-hydroxy-1,1-dioxo-2,3-dihydrobenzothiophene-4-carbonitrile] | 25 to 100 µM
N#Cc1c(Oc2cc(F)cc(F)c2)ccc2c1C(O)CS2(=N)=O (stereo not drawn) [5-(3,5-difluorophenoxy)-3-hydroxy-1-imino-2,3-dihydro-1H-1λ^4-benzo[b]thiophene-4-carbonitrile 1-oxide] | > 100 µM
N#Cc1cc(Oc2ccc3c(c2C(F)F)C(=O)C(F)(F)S3(=O)=O)ccc1F [5-[4-(difluoromethyl)-2,2-difluoro-1,1,3-trioxo-benzothiophen-5-yl]oxy-2-fluoro-benzonitrile] | 25 to 100 µM
N=S1(=O)CC(O)c2c1ccc(Oc1cc(F)cc(F)c1)c2Br (stereo not drawn) [[4-bromo-5-(3,5-difluorophenoxy)-3-hydroxy-1-imino-2,3-dihydro-1λ^4-benzo[b]thiophene 1-oxide] | > 100 µM
N#Cc1cc(F)cc(Oc2ccc3c(c2C(F)F)C(NCCC(=O)O)C(F)(F)S3(=O)=O)c1 (stereo not drawn) [3-[[5-(3-cyano-5-fluoro-phenoxy)-4-(difluoromethyl)-2,2-difluoro-1,1-dioxo-3H-benzothiophen-3-yl]amino]propanoic acid] | > 100 µM
N#Cc1cc(F)cc(Oc2ccc3c(c2Cl)C(=O)C(F)(F)S3(=O)=O)c1 [3-(4-chloro-2,2-difluoro-1,1,3-trioxo-benzothiophen-5-yl)oxy-5-fluoro-benzonitrile] | 25 to 100 µM
N#Cc1c(Oc2cncc(Cl)c2)ccc2c1[C@@H](O)CS2(=O)=O [(3R)-5-[(5-chloro-3-pyridyl)oxy]-3-hydroxy-1,1-dioxo-2,3-dihydrobenzothiophene-4-carbonitrile] | 25 to 100 µM
N#Cc1cc(F)cc(Oc2ccc3c(c2C#CCO)C(O)C(F)(F)S3(=O)=O)c1 (stereo not drawn) [3-[[2,2-difluoro-3-hydroxy-4-(3-hydroxyprop-1-ynyl)-1,1-dioxo-3H-benzothiophen-5-yl]oxy]-5-fluoro-benzonitrile] | > 100 µM
NC1c2c(ccc(OC3CCOCC3)c2C(F)F)S(=O)(=O)C1(F)F (stereo not drawn) [4-(difluoromethyl)-2,2-difluoro-1,1-dioxo-5-tetrahydropyran-4-yloxy-3H-benzothiophen-3-amine] | 25 to 100 µM
N#Cc1cncc(Oc2ccc3c(c2C#N)[C@@H](O)CS3(=O)=O)c1 [5-[[(3R)-4-cyano-3-hydroxy-1,1-dioxo-2,3-dihydrobenzothiophen-5-yl]oxy]pyridine-3-carbonitrile] | 25 to 100 µM
O=C1CS(=O)(=O)c2ccc(Oc3ccc(F)c(F)c3)c(C(F)F)c21 [4-(difluoromethyl)-5-(3,4-difluorophenoxy)-1,1-dioxo-benzothiophen-3-one] | > 100 µM
CO/C(=C/C(F)F)c1c(Oc2cc(F)cc(C#N)c2)ccc2c1C(O)C(F)(F)S2(=O)=O (stereo not drawn) [3-[[4-[(E)-3,3-difluoro-1-methoxy-prop-1-enyl]-2,2-difluoro-3-hydroxy-1,1-dioxo-3H-benzothiophen-5-yl]oxy]-5-fluoro-benzonitrile] | 25 to 100 µM
O=S1(=O)c2ccc(Oc3cc(F)cc(F)c3)c(Br)c2[C@@H](O)C1F (stereo partly drawn) [(3R)-4-bromo-5-(3,5-difluorophenoxy)-2-fluoro-1,1-dioxo-2,3-dihydrobenzothiophen-3-ol] | > 100 µM
N#Cc1cc(F)cc(Oc2ccc3c(c2C(F)F)C(NCC(F)F)CS3(=O)=O)c1 (stereo not drawn) [3-[[3-(2,2-difluoroethylamino)-4-(difluoromethyl)-1,1-dioxo-2,3-dihydrobenzothiophen-5-yl]oxy]-5-fluoro-benzonitrile] | > 100 µM
O=S1(=O)C[C@H](O)c2c1ccc(Oc1cncc(F)c1)c2Br [(3R)-4-bromo-5-[(5-fluoro-3-pyridyl)oxy]-1,1-dioxo-2,3-dihydrobenzothiophen-3-ol] | > 100 µM
